Reference: publication PMC9697930 (International Journal of Molecular Sciences, 2022)

Legend:
CYP2B6 = molecular target: T1, CYP2B6 (Homo sapiens, UniProt P20813); assay: Incubation assay with recombinant CYP (Vivid kit); format: biochemical; conditions: recombinant enzyme, Vivid substrate
T1 construct: purchased
Protocol: (§1) Possible interactions of examined PARPi with human CYP3A4, CYP2C8, CYP2D6, CYP1A2, CYP2B6, CYP2C9, CYP2C19, and CYP3A5 were evaluated using commercial Vivid CYP450 Screening Kits. […] CYP isoenzymes were mixed with the NADPH-regeneration system, and resulting solutions were added to the wells. After 10 min preincubation, the solution of NADP ^+ and a particular Vivid substrate were added to start the CYP-catalyzed reaction. Fluorescence corresponding to the levels of produced metabolites was detected using the microplate reader Infinite […] (Tecan, Männedorf, Switzerland) in a kinetic mode (1-minute intervals). The data from the 15 min interval were selected to analyze the results.

CYP2C19 = molecular target: T2, CYP2C19 (Homo sapiens, UniProt P33261); assay: Incubation assay with recombinant CYP (Vivid kit); format: biochemical; conditions: recombinant enzyme, Vivid substrate
T2 construct: purchased
Protocol: as §1

CYP1A2 = molecular target: T3, CYP1A2 (Homo sapiens, UniProt P05177); assay: Incubation assay with recombinant CYP (Vivid kit); format: biochemical; conditions: recombinant enzyme, Vivid substrate
T3 construct: purchased
Protocol: as §1

CYP2C8 = molecular target: T4, CYP2C8 (Homo sapiens, UniProt P10632); assay: Incubation assay with recombinant CYP (Vivid kit); format: biochemical; conditions: recombinant enzyme, Vivid substrate
T4 construct: purchased
Protocol: as §1

CYP3A5 = molecular target: T5, CYP3A5 (Homo sapiens, UniProt P20815); assay: Incubation assay with recombinant CYP (Vivid kit); format: biochemical; conditions: recombinant enzyme, Vivid substrate
T5 construct: purchased
Protocol: as §1

CYP2C9 = molecular target: T6, CYP2C9 (Homo sapiens, UniProt P11712); assay: Incubation assay with recombinant CYP (Vivid kit); format: biochemical; conditions: recombinant enzyme, Vivid substrate
T6 construct: purchased
Protocol: as §1

CYP2D6 = molecular target: T7, CYP2D6 (Homo sapiens, UniProt P10635); assay: Incubation assay with recombinant CYP (Vivid kit); format: biochemical; conditions: recombinant enzyme, Vivid substrate
T7 construct: purchased
Protocol: as §1

ABCG2 = conditions: Abcg2-knockout mice, MDCKII-ABCG2 cells; cited from earlier work

T6 sequence (P11712 whole entry): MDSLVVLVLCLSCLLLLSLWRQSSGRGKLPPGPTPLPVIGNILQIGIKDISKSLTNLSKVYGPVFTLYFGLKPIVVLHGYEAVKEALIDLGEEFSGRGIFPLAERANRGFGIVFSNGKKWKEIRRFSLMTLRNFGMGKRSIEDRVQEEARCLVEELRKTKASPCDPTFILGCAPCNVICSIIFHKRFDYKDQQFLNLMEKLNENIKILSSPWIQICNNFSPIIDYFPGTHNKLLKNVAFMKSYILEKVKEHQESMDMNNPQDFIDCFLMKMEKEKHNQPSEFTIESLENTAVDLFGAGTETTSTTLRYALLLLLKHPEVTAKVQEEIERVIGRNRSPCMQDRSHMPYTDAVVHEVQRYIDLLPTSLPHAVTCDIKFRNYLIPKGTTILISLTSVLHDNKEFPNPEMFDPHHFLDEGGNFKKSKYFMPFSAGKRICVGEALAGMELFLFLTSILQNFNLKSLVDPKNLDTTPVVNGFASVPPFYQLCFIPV
T7 sequence (P10635 whole entry): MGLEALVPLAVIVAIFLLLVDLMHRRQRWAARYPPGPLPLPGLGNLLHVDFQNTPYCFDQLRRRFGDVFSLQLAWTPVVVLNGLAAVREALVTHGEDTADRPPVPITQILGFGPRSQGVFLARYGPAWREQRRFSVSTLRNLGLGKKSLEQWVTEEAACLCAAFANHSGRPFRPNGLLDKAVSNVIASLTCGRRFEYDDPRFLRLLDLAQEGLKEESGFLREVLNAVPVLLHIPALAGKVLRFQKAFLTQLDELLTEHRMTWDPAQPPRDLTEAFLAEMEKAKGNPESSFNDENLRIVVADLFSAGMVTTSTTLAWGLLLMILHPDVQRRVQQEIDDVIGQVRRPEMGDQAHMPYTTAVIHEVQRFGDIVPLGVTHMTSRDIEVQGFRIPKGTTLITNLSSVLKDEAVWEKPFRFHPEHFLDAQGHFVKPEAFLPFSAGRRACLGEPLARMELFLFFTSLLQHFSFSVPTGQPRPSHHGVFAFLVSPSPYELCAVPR
T5 sequence (P20815 whole entry): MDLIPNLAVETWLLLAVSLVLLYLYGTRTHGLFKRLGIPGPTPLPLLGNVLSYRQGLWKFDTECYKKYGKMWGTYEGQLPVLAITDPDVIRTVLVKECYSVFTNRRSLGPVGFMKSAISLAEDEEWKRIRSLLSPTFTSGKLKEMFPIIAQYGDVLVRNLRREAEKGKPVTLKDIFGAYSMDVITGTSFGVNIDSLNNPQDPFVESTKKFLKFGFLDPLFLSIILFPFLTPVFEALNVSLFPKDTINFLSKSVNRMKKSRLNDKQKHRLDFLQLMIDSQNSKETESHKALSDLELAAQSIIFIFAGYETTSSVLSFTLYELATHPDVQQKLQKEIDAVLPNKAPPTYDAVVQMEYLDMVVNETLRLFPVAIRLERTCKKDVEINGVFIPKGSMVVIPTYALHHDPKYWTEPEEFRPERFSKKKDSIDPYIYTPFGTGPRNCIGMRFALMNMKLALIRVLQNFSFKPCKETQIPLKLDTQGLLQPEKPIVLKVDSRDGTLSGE
T4 sequence (P10632 whole entry): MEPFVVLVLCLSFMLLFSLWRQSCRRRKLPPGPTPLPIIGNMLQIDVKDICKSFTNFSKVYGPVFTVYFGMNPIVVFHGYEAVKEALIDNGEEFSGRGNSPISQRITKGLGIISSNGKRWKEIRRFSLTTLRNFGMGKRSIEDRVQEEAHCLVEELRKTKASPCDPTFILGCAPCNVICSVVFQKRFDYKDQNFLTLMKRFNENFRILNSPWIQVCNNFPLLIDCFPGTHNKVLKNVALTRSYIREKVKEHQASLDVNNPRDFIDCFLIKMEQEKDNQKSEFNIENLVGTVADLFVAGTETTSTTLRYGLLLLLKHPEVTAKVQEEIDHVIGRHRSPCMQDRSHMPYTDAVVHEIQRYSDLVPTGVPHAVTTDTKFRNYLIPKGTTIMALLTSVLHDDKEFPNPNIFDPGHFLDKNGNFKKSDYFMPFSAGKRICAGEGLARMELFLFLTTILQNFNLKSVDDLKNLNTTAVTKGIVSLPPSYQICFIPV
T3 sequence (P05177 whole entry): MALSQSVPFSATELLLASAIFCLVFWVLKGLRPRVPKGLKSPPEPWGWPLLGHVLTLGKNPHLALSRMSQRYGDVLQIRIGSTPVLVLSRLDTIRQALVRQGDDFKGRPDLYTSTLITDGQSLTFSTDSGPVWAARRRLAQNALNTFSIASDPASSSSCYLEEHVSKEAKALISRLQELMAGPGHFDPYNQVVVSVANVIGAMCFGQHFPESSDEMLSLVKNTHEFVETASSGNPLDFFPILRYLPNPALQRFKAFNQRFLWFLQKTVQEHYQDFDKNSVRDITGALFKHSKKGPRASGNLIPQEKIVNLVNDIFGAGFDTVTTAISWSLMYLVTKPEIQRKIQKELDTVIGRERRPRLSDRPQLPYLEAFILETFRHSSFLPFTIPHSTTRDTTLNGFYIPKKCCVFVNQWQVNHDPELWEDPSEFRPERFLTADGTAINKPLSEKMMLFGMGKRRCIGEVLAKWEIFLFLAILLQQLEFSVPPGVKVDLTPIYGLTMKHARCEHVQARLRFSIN
T1 sequence (P20813 whole entry): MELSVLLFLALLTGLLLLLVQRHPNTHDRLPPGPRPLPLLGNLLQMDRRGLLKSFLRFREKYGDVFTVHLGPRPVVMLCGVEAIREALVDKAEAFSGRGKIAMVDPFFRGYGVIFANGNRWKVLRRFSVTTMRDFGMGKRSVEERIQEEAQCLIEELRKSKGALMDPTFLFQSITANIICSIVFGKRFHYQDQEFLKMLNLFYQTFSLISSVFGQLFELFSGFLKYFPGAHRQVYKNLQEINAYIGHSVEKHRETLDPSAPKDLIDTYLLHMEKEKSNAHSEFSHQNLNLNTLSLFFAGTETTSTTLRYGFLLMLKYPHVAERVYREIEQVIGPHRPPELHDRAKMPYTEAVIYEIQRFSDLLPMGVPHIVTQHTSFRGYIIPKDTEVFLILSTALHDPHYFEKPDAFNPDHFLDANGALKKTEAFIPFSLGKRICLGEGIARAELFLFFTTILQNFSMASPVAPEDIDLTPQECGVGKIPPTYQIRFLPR
T2 sequence (P33261 whole entry): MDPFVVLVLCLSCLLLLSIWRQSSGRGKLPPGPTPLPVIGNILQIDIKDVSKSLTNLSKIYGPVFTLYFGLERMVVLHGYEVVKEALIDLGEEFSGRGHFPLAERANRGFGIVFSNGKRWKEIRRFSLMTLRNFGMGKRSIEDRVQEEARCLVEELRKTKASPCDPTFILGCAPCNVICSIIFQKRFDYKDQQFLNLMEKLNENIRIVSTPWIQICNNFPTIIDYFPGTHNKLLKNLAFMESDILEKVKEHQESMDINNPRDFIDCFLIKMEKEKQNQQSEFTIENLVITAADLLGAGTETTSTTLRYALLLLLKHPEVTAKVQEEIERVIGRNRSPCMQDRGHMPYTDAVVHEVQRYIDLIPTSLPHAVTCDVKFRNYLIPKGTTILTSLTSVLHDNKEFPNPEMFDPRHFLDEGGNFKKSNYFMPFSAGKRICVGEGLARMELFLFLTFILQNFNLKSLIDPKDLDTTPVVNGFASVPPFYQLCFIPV

- IC50 (CYP2B6): > 50 µM
- IC50 (CYP2C19): > 50 µM
- IC50 (CYP1A2): > 50 µM
- IC50 (CYP2C8): > 50 µM
- IC50 (CYP3A5): > 50 µM
- IC50 (CYP2C9): > 50 µM
- IC50 (CYP2D6): > 50 µM
Structure (SMILES): Cn1ncnc1[C@H]1c2n[nH]c(=O)c3cc(F)cc(c23)N[C@@H]1c1ccc(F)cc1 [talazoparib, Talazoparib]
- ABCG2 substrate status (ABCG2): not of ABCG2
